This note sets out measurements from ChEMBL document CHEMBL6092150, “Exploration of isatin-based inhibitors of SARS-CoV-2 Nsp15 endoribonuclease” (Eur J Med Chem, 2024).

Assay [1] concerns SARS-CoV-2. The assay is described as follows: Antiviral activity against SARS-CoV-2 Omicron BA.7 variant infected in human A549 cells transfected with human ACE2 and TMPRSS2 assessed as fold reduction in viral RNA load at 80 uM incubated for 3 days by qRT-PCR analysis relative to control. The following applies: time 3 day. The assay is classed as functional, Severe acute respiratory syndrome coronavirus 2. On the technique in general: In qPCR the cycle at which signal appears reflects the starting amount.

Assay [2] has as its system SARS-CoV-2. The assay can be described thus: Antiviral activity against SARS-CoV-2 Omicron BA.7 variant infected in human A549 cells transfected with human ACE2 and TMPRSS2 assessed as fold reduction in viral RNA load incubated for 3 days by qRT-PCR analysis. The assay is classed as functional. The following applies: Severe acute respiratory syndrome coronavirus 2, Omicron BA.7, A549, 72 h; time 3 day.

For assay [3], the system named is SARS-CoV-2. The assay is described as follows: Antiviral activity against SARS-CoV-2 Omicron BA.7 variant infected in human A549 cells transfected with human ACE2 and TMPRSS2 assessed as fold reduction in viral RNA load at 40 uM incubated for 3 days by qRT-PCR analysis relative to control. The assay is classed as functional, Severe acute respiratory syndrome coronavirus 2. The following applies: time 3 day.

For `N#CC(C#N)=C1C(=O)Nc2ccc([N+](=O)[O-])cc21`, the “fold change (FC)” value in assay [1] was determined as 425. Moreover, the 90% effect concentration (EC90) in assay [2] is 54 µM.

On to `N#C[C@@]1(c2ccc3c(N)ncnn23)O[C@H](CO)[C@@H](O)[C@H]1O` [GS-441524], for which, in assay [2], the EC90 came to 2 µM. Also, the “fold change (FC)” value in assay [3] turned out to be 72000.

In the case of `N#CC(C#N)=C1C(=O)Nc2c(Br)cc(Br)cc21`, in assay [1], the “fold change (FC)” value is given as 68000. The 90% effect concentration (EC90) in assay [2] was 39 µM.

One may read the EC90 as the concentration at which the effect reaches the 90% level.
